Reference: patent US20220127297A1, “Novel Antibacterial 3"-Derivatives Of 4,6-Disubstituted 2,5-Dideoxystreptamine Aminoglycoside Antibiotics” (AGILeBiotics B.V., priority 2018, published 2022)
In brackets after ≈: the same amount, converted by molar mass. Like-named read-outs stand apart in the source and are kept apart here.

How the values were obtained:
[1] = test system: S. aureus ATCC 29213; test: MIC 90, broth micro-dilution, ATCC strains; type: cell-based, Staphylococcus aureus
From the text: (§1) 3.3 Protocol for MIC Determination (ATCC Strains)
(§2) Tested reference compounds. Amikacin sulfate (Cat. No. 01693, Chem-Impex), Gentamicin sulfate (Cat. No. G4918, Sigma Aldrich), Azithromycin (Cat. No. 1046056, USP), Ceftazidime Pentahydrate (Cat. No. 1098130, USP), Ciprofloxacin (Cat. No. 1134313, USP), Meropenem (Cat. No. 1392454, USP), Rifampicin (Cat. No. R0079, TCI), Tobramycin (Cat. No. 1667508, USP), Vancomycin (Cat. No. 1709007 USP).
(§3) Microbial strains. Staphylococcus aureus ATCC 29213, Staphylococcus aureus ATCC BAA-1717, Escherichia coli ATCC BAA-1025, Klebsiella pneumoniae ATCC BAA-1705, Klebsiella pneumoniae ATCC BAA-2524, Pseudomonas aeruginosa ATCC 27853, Pseudomonas aeruginosa ATCC BAA-2108, Acinetobacter baumannii ATCC BAA-1800.
(§4) Culture media and equipment. BBL™ Mueller Hinton Broth (REF 275730, Lot. 7009699, Becton Dickinson), Mueller Hinton Agar 2 (Ref. No. 97580-500G-F, Lot. No. BCBV4646, Sigma), Dulbecco's Modified Eagle's Medium (DMEM) (Cat. No. 41966-029, Gibco), Minimum Essential Medium (MEM) (Cat. No. 42360-024, Gibco), Fetal bovine serum (FBS) (Cat. No. F7524, Sigma), Non-essential amino acids (NEAA) (100×, Cat. No. 11140-035, Gibco), Sodium Pyruvate (100 mM, 100×, Cat. No. 11360-039, Gibco), Staurosporine (Cat. No. B50188, Biotrend), Cellstar 96-well plates U-bottom (Cat. No. 650180, Lot. No. E14123EB, Greiner Bio-one), CellTiter-Glo (Cat. No. G7573, Promega), 96-well plate V-bottom (Cat. No. 651201, Greiner), 96-well clear plate, U-bottom, (Cat. No. 650180, Greiner), 96-well white plate with clear bottom (Cat. No. 655098, Greiner), 96-well deep well plate 1 mL (Cat. No. 278606, Nunc), Sodium Pyruvate (100 mM, 100×, Gibco, Cat #11360-039), Incubator (Binder), Laminar flow (Thermo Scientific), BioPhotometer (Eppendorf); DEN-1B (McFarland Densitometer, Biosan); McFarland standards (polymer microparticle suspension, Biosan).
(§5) Compound preparation. The test compounds and reference antibiotics were prepared according to CLSI guidelines (Clinical and Laboratory Standards Institute (CLSI); Methods for dilution antimicrobial susceptibility tests for bacteria that grow aerobically; approved standard—ninth edition, M07-A9, Vol. 32, No. 2, 2012) as 5 mg/mL stock solutions in DMSO. Out of these DMSO solutions, 43.5 μL was transferred to 1656.5 μL of MH media in a deep well plate. Out of these working solutions 100 μL was transferred to wells in the third column of 96-well plates. Plates were previously filled with 50 μL of MH media in all wells except for the wells in the third column. After compound and antibiotic addition, 50 μL was transferred from the third to the fourth column, then from the fourth to the fifth and so on. In this manner, the compounds and antibiotics were plated in 96-well plate in serial two-fold dilutions giving a final concentration range of 64-0.125 μg/mL.
(§6) Preparation of microorganisms. Designations used for clinical isolates were from the Fidelta strain collection bank. Microorganisms used were all revived from skim milk storage at −70° C. by plating them on MH agar plates. The following day the single colony of each microorganism was again streaked on fresh agar plates. The next day, using the direct colony suspension method, broth solutions that achieve turbidity equivalent to 0.5 McFarland standard for each microorganism were prepared. […] Out of these suspensions, actual inoculums were prepared by diluting them 100× with MH media giving a final microorganism count of 2-8×10^5 CFU/mL. For each strain of microorganisms, 20 mL of these inoculum solutions were prepared. From the second to the twelfth column of 96-well plates, 50 μL of these solutions were transferred per well. To the first column, 50 μL per well of pure growth media was added. In this manner the first column was used as sterility control of media, the second column was used as control of microorganism's growth and the rest of the plate was used for MIC determination. All plates were incubated for 16-24 h at 37° C. […]

[2] = test system: P. aeruginosa ATCC 27853; test: MIC 90, broth micro-dilution, ATCC strains; type: cell-based, Pseudomonas aeruginosa
From the text: as §1, §2, §3, §4, §5, §6

[3] = test system: E. coli ATCC BAA-1025 (= BL 21); test: MIC 90, broth micro-dilution, ATCC strains; type: cell-based, Escherichia coli
From the text: as §1, §2, §3, §4, §5, §6

[4] = test system: K. pneumoniae ATCC BAA-1705; test: MIC 90, resistant ATCC strains of the ESKAPE panel; type: cell-based; conditions: Klebsiella pneumoniae, ATCCBAA1705, KPC
From the text: as §1, §2, §3, §4, §5, §6

[5] = test system: P. aeruginosa ATCC BAA-2108; test: MIC 90, resistant ATCC strains of the ESKAPE panel; type: cell-based; conditions: Pseudomonas aeruginosa, ATCCBAA2108, MDR
From the text: as §1, §2, §3, §4, §5, §6

[6] = test system: A. baumannii ATCC BAA-1800; test: MIC 90, resistant ATCC strains of the ESKAPE panel; type: cell-based; conditions: Acinetobacter baumannii, ATCCBAA1800, MDR
From the text: as §1, §2, §3, §4, §5, §6

[7] = test system: S. aureus ATCC BAA-1717; test: MIC 90, resistant ATCC strains of the ESKAPE panel; type: cell-based; conditions: Staphylococcus aureus, MRSA
From the text: as §1, §2, §3, §4, §5, §6

[8] = test system: K. pneumoniae ATCC BAA-2524; test: MIC 90, resistant ATCC strains of the ESKAPE panel; type: cell-based; conditions: Klebsiella pneumoniae, ATCCBAA2524, OXA-48
From the text: as §1, §2, §3, §4, §5, §6

[9] = Staphylococcus aureus, ATCC29213, read-out: MIC 90
[10] = Pseudomonas aeruginosa, ATCC27853, read-out: MIC 90
[11] = Escherichia coli, ATCCBAA1025, read-out: MIC 90

Row | Structure (SMILES) | MIC90 [1, 9] [µM] | MIC90 [2, 10] [µM] | MIC90 [3, 11] [µM] | MIC90 [1] [µM] | MIC90 [2] [µM] | MIC90 [3] [µM] | also measured
1 | N=C(N)NC1[C@@H](O)C(OC2[C@@H](F)[C@H](O[C@H]3OC(CN)[C@@H](O)[C@H](O)C3N)C(N)C[C@H]2NC(=O)[C@@H](O)CCN)O[C@H](CO)[C@H]1O (stereo partly drawn) [ABX4004, 3′epi-KanaB-AHB-F-Gua] | 2 (≈ 1.26 µg/mL) | 4 (≈ 2.51 µg/mL) | 2 (≈ 1.26 µg/mL) |  |  |  | 
2 | N=C(NCCCN)NC1[C@@H](O)C(OC2[C@@H](F)[C@H](O[C@H]3OC(CN)[C@@H](O)CC3N)C(N)C[C@H]2NC(=O)[C@@H](O)CCN)O[C@H](CO)[C@H]1O (some centres unmarked) [ABX5030, Tobra-AHB-F-Gua-3-amino-propyl] | 0.5 (≈ 0.335 µg/mL) | 0.5 (≈ 0.335 µg/mL) | 1 (≈ 0.67 µg/mL) |  |  |  | 
3 | NCC[C@H](O)C(=O)N[C@@H]1CC(N)[C@@H](O[C@H]2OC(CN)[C@@H](O)CC2N)[C@H](F)C1OC1O[C@H](CO)[C@@H](O)C(N)[C@H]1O (some centres unmarked) [ABX5024, Tobra-AHB-F] |  |  |  | 1 (≈ 0.571 µg/mL) | 2 (≈ 1.14 µg/mL) | 1 (≈ 0.571 µg/mL) | 
4 | NCC[C@H](O)C(=O)N[C@@H]1CC(N)[C@@H](O[C@H]2OC(CN)[C@@H](O)[C@@H](O)C2N)[C@H](F)C1OC1O[C@H](CO)[C@@H](O)C(N)[C@H]1O (stereo partly drawn) [ABX4003, 3′Epi-KanaB-AHB-F] |  |  |  | 4 (≈ 2.35 µg/mL) | 8 (≈ 4.69 µg/mL) | 4 (≈ 2.35 µg/mL) | 
5 | NCCC(O)C(=O)NC1CC(N)C(OC2OC(CN)C(O)C(O)C2O)C(F)C1OC1OC(CO)C(O)C(N)C1O (stereo not drawn) [ABX3005, 3′Epi-KanaA-AHB-F] |  |  |  | 4 (≈ 2.35 µg/mL) | 8 (≈ 4.7 µg/mL) | 8 (≈ 4.7 µg/mL) | 
6 | CNCCNC(=N)NC1[C@@H](O)C(OC2[C@@H](F)[C@H](O[C@H]3OC(CN)[C@@H](O)CC3N)C(N)C[C@H]2NC(=O)[C@@H](O)CCN)O[C@H](CO)[C@H]1O (some centres unmarked) [ABX5038, Tobra-AHB-F-Gua 2-(methylamino)ethyl] |  |  |  |  |  |  | MIC90 [4]: 8 µg/mL (≈ 11.9 µM); MIC90 [5]: 4 µg/mL (≈ 5.97 µM); MIC90 [6]: 32 µg/mL (≈ 47.8 µM); MIC90 [7]: 0.5 µg/mL (≈ 0.747 µM); MIC90 [8]: 0.5 µg/mL (≈ 0.747 µM)
7 | NCC[C@H](O)C(=O)N[C@@H]1C[C@H](N)[C@@H](O[C@H]2O[C@H](CN)[C@@H](O)[C@@H](O)[C@H]2O)[C@H](O)[C@H]1O[C@H]1O[C@H](CO)[C@@H](O)[C@H](N)[C@H]1O [ABX3002, 3′Epi-KanaA-AHB] |  |  |  | 16 (≈ 9.37 µg/mL) | 32 (≈ 18.7 µg/mL) | 32 (≈ 18.7 µg/mL) | 
8 | N=C(N)NC1[C@@H](O)C(OC2[C@@H](F)[C@H](O[C@H]3OC(CN)[C@@H](O)[C@H](O)C3O)C(N)C[C@H]2NC(=O)[C@@H](O)CCN)O[C@H](CO)[C@H]1O (stereo partly drawn) [ABX3003, 3′epi-KanaA-AHB-F-Gua] | 2 (≈ 1.26 µg/mL) | 8 (≈ 5.04 µg/mL) | 4 (≈ 2.52 µg/mL) |  |  |  | 
9 | NCC[C@H](O)C(=O)N[C@@H]1CC(N)[C@@H](O[C@H]2OC(CN)[C@@H](O)CC2N)[C@H](O)C1OC1O[C@H](CO)[C@@H](O)C(N)[C@H]1O (some centres unmarked) [ABX5004, Tobra-AHB] |  |  |  | 1 (≈ 0.569 µg/mL) | 4 (≈ 2.27 µg/mL) | 2 (≈ 1.14 µg/mL) | 
